Data: US10975037B2 (priority 2018, dated 2021)
Where two headings read alike, the source gives them in different places.

What was measured:
[1] = target: human RORγt ligand binding domain (RORγt LBD) (Homo sapiens (Human), UniProt P51449); test: RORγt ThermoFluor® assay (thermal shift binding)
Method in brief: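 Thermal shift with 0.065 mg/mL RORγt LBD and 60 μM 1,8-ANS in 100 mM Hepes pH 7.0, 10 mM NaCl, 2.5 mM GSH, 0.002% Tween-20.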

full-length human RORγt = full-length human RORγt (Homo sapiens (Human), UniProt P51449); test: RORγt (full-length human) reporter assay, conditions A or B, HEK293T cells; type: cell-based; settings: for inhibition at 6 µM: read-out: RORγt (FL) Reporter Assay A or B, % inhibition @ 6 μM; for inhibition at 3 µM: 3 μM compound concentration (footnote *); for inhibition at 0.67 µM: 0.67 μM compound concentration (footnote ****)
full-length human RORγt, sequence (P51449 other isoform, or with tags, fused parts or gaps): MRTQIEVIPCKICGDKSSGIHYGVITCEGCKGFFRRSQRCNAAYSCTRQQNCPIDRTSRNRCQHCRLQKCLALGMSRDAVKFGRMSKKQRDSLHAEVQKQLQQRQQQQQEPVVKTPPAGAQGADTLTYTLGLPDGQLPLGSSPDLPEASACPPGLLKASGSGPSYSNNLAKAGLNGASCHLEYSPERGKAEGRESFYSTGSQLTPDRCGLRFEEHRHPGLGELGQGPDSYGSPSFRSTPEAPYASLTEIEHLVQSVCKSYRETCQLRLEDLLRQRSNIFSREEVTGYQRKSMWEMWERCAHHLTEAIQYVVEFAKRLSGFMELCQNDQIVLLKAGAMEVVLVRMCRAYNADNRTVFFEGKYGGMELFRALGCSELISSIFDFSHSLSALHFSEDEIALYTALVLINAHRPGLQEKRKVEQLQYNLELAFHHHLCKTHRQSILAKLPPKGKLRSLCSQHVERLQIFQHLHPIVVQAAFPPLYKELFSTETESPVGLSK
Method in brief: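 Dual-luciferase read-out was taken after an overnight (16–20 h) compound exposure. Firefly data were scaled between DMSO-only and saturating reference compound, Renilla-normalized, then plotted against concentration for IC50.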

[2] = read-out: ThermoFluor® Assay, Kd
[3] = HEK-293T, 6 μM compound concentration
[4] = RORγt (FL) Reporter Assay A or B, IC50, HEK293T cells
[5] = HEK-293T, 2 μM compound concentration, read-out: RORγt (FL) Reporter Assay A or B, % inhibition
[6] = HEK-293T, 0.11 μM compound concentration (footnote ********), read-out: RORγt (FL) Reporter Assay A or B, % inhibition
[7] = HEK-293T, read-out: RORγt (FL) Reporter Assay A or B, % inhibition
[8] = HEK-293T, 0.33 μM compound concentration (footnote *****), read-out: RORγt (FL) Reporter Assay A or B, % inhibition

human RORγt ligand binding domain (RORγt LBD), sequence (P51449 other isoform, or with tags, fused parts or gaps): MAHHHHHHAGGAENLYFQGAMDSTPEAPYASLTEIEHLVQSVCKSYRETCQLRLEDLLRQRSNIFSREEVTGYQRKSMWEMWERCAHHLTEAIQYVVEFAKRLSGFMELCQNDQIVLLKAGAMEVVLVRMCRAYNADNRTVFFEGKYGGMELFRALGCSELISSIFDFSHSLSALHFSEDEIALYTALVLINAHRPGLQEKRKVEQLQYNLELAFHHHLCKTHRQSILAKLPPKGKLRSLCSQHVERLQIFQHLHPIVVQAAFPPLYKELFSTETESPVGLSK

Row | SMILES | Kd [1, 2] | IC50 (full-length human RORγt; [4]) | Kd ([1]; ThermoFluor® Assay, Kd) | other results
1 | COc1cc(N[C@H](C)C(F)(F)F)ccc1-c1c(Cl)c(C(=O)NC[C@]2(O)CC[C@@H](S(C)(=O)=O)CC2)nn1C(C)(C)C [Example 27, 1-(tert-Butyl)-4-chloro-N-(((1s,4S)-1-hydroxy-4-(methylsulfonyl)cyclohexyl)methyl)-5-(2-methoxy-4-(((R)-1,1,1-trifluoropropan-2-yl)amino)phenyl)-1H-pyrazole-3-carboxamide] | 7.4 nM | 60 nM | – | inhibition at 6 µM (full-length human RORγt; [3]): 105%
2 | CC(C)(O)Cn1nc(C(=O)NC[C@H]2CC[C@H](S(C)(=O)=O)CC2)c(Cl)c1-c1ccc(CC(C)(C)C(F)(F)F)cc1OC(F)F [Example 145, 4-Chloro-5-(2-(difluoromethoxy)-4-(3,3,3-trifluoro-2,2-dimethylpropyl)phenyl)-1-(2-hydroxy-2-methylpropyl)-N-(((1r,4r)-4-(methylsulfonyl)cyclohexyl)methyl)-1H-pyrazole-3-carboxamide] | 2.5 nM | 13 nM | – | inhibition at 2 µM (full-length human RORγt; [5]): 105%
3 | CCn1nc(C(=O)NC[C@H]2CC[C@H](S(C)(=O)=O)CC2)c(Cl)c1-c1ccc(C[C@H](C)C(F)(F)F)cc1OC(F)F (single isomer, unassigned) [Example 55, 4-Chloro-5-(2-(difluoromethoxy)-4-((S*)-3,3,3-trifluoro-2-methylpropyl)phenyl)-1-ethyl-N-(((1r,4S)-4-(methylsulfonyl)cyclohexyl)methyl)-1H-pyrazole-3-carboxamide] | – | 10 nM | 0.35 nM | inhibition at […] (full-length human RORγt; [6]): 94%
4 | CCn1nc(C(=O)NC[C@H]2CC[C@H](S(N)(=O)=O)CC2)c(Cl)c1-c1ccc(C[C@@H](C)C(F)(F)F)cc1OC(F)F (single isomer, unassigned) [Example 139, 4-Chloro-5-(2-(difluoromethoxy)-4-((R*)-3,3,3-trifluoro-2-methylpropyl)phenyl)-1-ethyl-N-(((1r,4R)-4-sulfamoylcyclohexyl)methyl)-1H-pyrazole-3-carboxamide] | – | 2.7 nM | 0.58 nM | inhibition at 1 µM (full-length human RORγt; HEK-293T, 1 μM compound concentration (footnote ***), read-out: RORγt (FL) Reporter Assay A or B, % inhibition): 122%
5 | CCn1nc(C(=O)NC[C@H]2CC[C@H](S(C)(=O)=O)CC2)c(Cl)c1-c1ccc(CCC(F)(F)F)cc1OC(F)(F)F [Example 189, 4-Chloro-1-ethyl-N-(((1r,4r)-4-(methylsulfonyl)cyclohexyl)methyl)-5-(2-(trifluoromethoxy)-4-(3,3,3-trifluoropropyl)phenyl)-1H-pyrazole-3-carboxamide] | 4.8 nM | > 2000 nM | – | inhibition at 2 µM (full-length human RORγt; [7]): 47%
6 | CCn1nc(C(=O)NC[C@H]2CC[C@@H](S(C)(=O)=O)CN2)c(Cl)c1-c1ccc(CC(C)(C)C(F)(F)F)cc1OC(F)F (stereo in doubt) [Example 13, 4-Chloro-5-(2-(difluoromethoxy)-4-(3,3,3-trifluoro-2,2-dimethylpropyl)phenyl)-1-ethyl-N-(((2R*,5R*)-5-(methylsulfonyl)piperidin-2-yl)methyl)-1H-pyrazole-3-carboxamide] | – | 190 nM | 110 nM | inhibition at 3 µM (full-length human RORγt; [7]): 90%
7 | CCn1nc(C(=O)NC[C@H]2CC[C@H](S(C)(=O)=O)CC2)c(C)c1-c1ccc(CCC(F)(F)F)cc1OC(F)F [Example 224, 5-(2-(Difluoromethoxy)-4-(3,3,3-trifluoropropyl)phenyl)-1-ethyl-4-methyl-N-(((1r,4r)-4-(methylsulfonyl)cyclohexyl)methyl)-1H-pyrazole-3-carboxamide] | 2.4 nM | 0.44 nM | – | inhibition at […] (full-length human RORγt; [6]): 95%
8 | CCn1nc(C(=O)NC[C@H]2CC[C@H](S(C)(=O)=O)CC2)c(Cl)c1-c1ccc(CCC(C)C)cc1OC [Example 74, 4-Chloro-1-ethyl-5-(4-isopentyl-2-methoxyphenyl)-N-(((1r,4r)-4-(methylsulfonyl)cyclohexyl)methyl)-1H-pyrazole-3-carboxamide] | 0.33 nM | 38 nM | – | inhibition at 0.67 µM (full-length human RORγt; [7]): 50%
9 | CCn1nc(C(=O)NC[C@@]2(O)CC[C@H](S(C)(=O)=O)C[C@@H]2O)c(Cl)c1-c1ccc(C[C@H](C)C(F)(F)F)cc1OC(F)F (stereo in doubt) [Example 52, 4-Chloro-5-(2-(difluoromethoxy)-4-((S*)-3,3,3-trifluoro-2-methylpropyl)phenyl)-N-(((1S*,2S*,4S*)-1,2-dihydroxy-4-(methylsulfonyl)cyclohexyl)methyl)-1-ethyl-1H-pyrazole-3-carboxamide] | – | 26 nM | 3.5 nM | inhibition at 3 µM (full-length human RORγt; [7]): 103%
10 | CCn1nc(C(=O)NC[C@@H]2CC[C@@H](S(C)(=O)=O)CO2)c(Cl)c1-c1ccc(CC(C)(C)C(F)(F)F)cc1OC(F)F (single isomer, unassigned) [Example 16, 4-Chloro-5-(2-(difluoromethoxy)-4-(3,3,3-trifluoro-2,2-dimethylpropyl)phenyl)-1-ethyl-N-(((2S*,5R*)-5-(methylsulfonyl)tetrahydro-2H-pyran-2-yl)methyl)-1H-pyrazole-3-carboxamide] | – | 4.8 nM | 0.19 nM | inhibition at 0.67 µM (full-length human RORγt; [7]): 105%
11 | CCc1cc(N[C@H](C)C(F)(F)F)ccc1-c1c(Cl)c(C(=O)NC[C@H]2CC[C@H](S(C)(=O)=O)CC2)nn1CC [Example 206, 4-Chloro-1-ethyl-5-(2-ethyl-4-(((R)-1,1,1-trifluoropropan-2-yl)amino)phenyl)-N-(((1r,4R)-4-(methylsulfonyl)cyclohexyl)methyl)-1H-pyrazole-3-carboxamide] | 7 nM | 31 nM | – | inhibition at 2 µM (full-length human RORγt; [5]): 100%
12 | CCn1nc(C(=O)NC[C@]2(O)CC[C@@H](S(C)(=O)=O)CC2)c(Cl)c1-c1ccc(C(O)CCC(F)(F)F)cc1OC(F)F (stereo partly drawn) [Example 98, 4-Chloro-5-(2-(difluoromethoxy)-4-(4,4,4-trifluoro-1-hydroxybutyl)phenyl)-1-ethyl-N-(((1s,4s)-1-hydroxy-4-(methylsulfonyl)cyclohexyl)methyl)-1H-pyrazole-3-carboxamide] | 310 nM | 71 nM | – | inhibition at 3 µM (full-length human RORγt; [7]): 89%
13 | CCn1nc(C(=O)NC[C@]2(O)CC[C@@H](S(C)(=O)=O)CC2)c(Cl)c1-c1ccc(C[C@@H](C)C(F)(F)F)cc1OC(F)F (single isomer, unassigned) [Example 136, 4-Chloro-5-(2-(difluoromethoxy)-4-((R*)-3,3,3-trifluoro-2-methylpropyl)phenyl)-1-ethyl-N-(((1s,4S)-1-hydroxy-4-(methylsulfonyl)cyclohexyl)methyl)-1H-pyrazole-3-carboxamide] | – | 3.6 nM | 1.1 nM | inhibition at […] (full-length human RORγt; [8]): 89%
14 | CCn1nc(C(=O)NC[C@H]2CC[C@H](S(N)(=O)=O)CC2)c(C)c1-c1ccc(C[C@H](C)C(F)(F)F)cc1OC(F)F (single isomer, unassigned) [Example 59, 5-(2-(difluoromethoxy)-4-((S*)-3,3,3-trifluoro-2-methylpropyl)phenyl)-1-ethyl-4-methyl-N-(((1r,4S)-4-sulfamoylcyclohexyl)methyl)-1H-pyrazole-3-carboxamide] | – | 19 nM | 1.2 nM | inhibition at […] (full-length human RORγt; [8]): 93%
15 | CCn1nc(C(=O)NC[C@H]2CC[C@H](S(C)(=O)=O)CC2)c(C#N)c1-c1ccc(CC(C)(C)C(F)(F)F)cc1OC [Example 127, 4-Cyano-1-ethyl-5-(2-methoxy-4-(3,3,3-trifluoro-2,2-dimethylpropyl)phenyl)-N-(((1r,4r)-4-(methylsulfonyl)cyclohexyl)methyl)-1H-pyrazole-3-carboxamide] | 3.7 nM | 20 nM | – | inhibition at 0.67 µM (full-length human RORγt; [7]): 94%
16 | CCn1nc(C(=O)NC[C@H]2CC[C@H](S(C)(=O)=O)CC2)c(C(F)(F)F)c1-c1ccc(N[C@H](C)C(F)(F)F)cc1OC [Example 218, 1-Ethyl-5-(2-methoxy-4-(((R)-1,1,1-trifluoropropan-2-yl)amino)phenyl)-N-(((1r,4R)-4-(methylsulfonyl)cyclohexyl)methyl)-4-(trifluoromethyl)-1H-pyrazole-3-carboxamide] | 6.3 nM | – | – | RORγt (FL) Reporter Assay A or B, % inhibition @ 6 μM (full-length human RORγt; 6 μM compound concentration): 105%; IC50 (full-length human RORγt; HEK293T cells, read-out: RORγt (FL) Reporter Assay A or B, IC50): 61 nM
17 | CCn1nc(C(=O)NC[C@]2(C(N)=O)CC[C@H](S(C)(=O)=O)CC2)c(Cl)c1-c1ccc(N[C@H](C)C(F)(F)F)cc1OC [Example 34, N-(((1r,4R)-1-carbamoyl-4-(methylsulfonyl)cyclohexyl)methyl)-4-chloro-1-ethyl-5-(2-methoxy-4-(((R)-1,1,1-trifluoropropan-2-yl)amino)phenyl)-1H-pyrazole-3-carboxamide] | 3000 nM | > 6000 nM | – | inhibition at 6 µM (full-length human RORγt; [3]): 6%
18 | CCn1nc(C(=O)NC[C@]2(C(=O)O)CC[C@@H](S(C)(=O)=O)CC2)c(Cl)c1-c1ccc(N[C@H](C)C(F)(F)F)cc1OC (relative stereo) [Example 97, (1s*,4S*)-1-((4-Chloro-1-ethyl-5-(2-methoxy-4-(((R)-1,1,1-trifluoropropan-2-yl)amino)phenyl)-1H-pyrazole-3-carboxamido)methyl)-4-(methylsulfonyl)cyclohexane-1-carboxylic Acid] | – | 730 nM | 180 nM | inhibition at 6 µM (full-length human RORγt; [3]): 94%
